What was measured:
[1] = mouse, in vivo
Description: […]. Animals received an initial dose of 30 mg/kg. If the animals had no significant adverse effects within 60 min after treatment, the dose for the next cohort was increased. If one or more animals died or had significant adverse effects within 60 min after treatment, the dose for the next cohort was decreased. The testing stopped when all animals survived at the upper bound (200 mg/kg), or lower bound (3 mg/kg) had been reached. Full clinical examinations and body weight change were assessed. At each dose level, animals were observed, and mortality was noted daily after compound administration for three days. […] Body weights were recorded pre-dose and at 72 h.
The next dose level was determined by the following scheme: • 30 mg/kg, if no death, 100 mg/kg, if no death, 200 mg/kg (upper bound) • 30 mg/kg, if no death, 100 mg/kg, if death, 50 mg/kg • 30 mg/kg, if death, 10 mg/kg, if death, 3 mg/kg (lower bound) • 30 mg/kg, if death, 10 mg/kg, if no death, 17 mg/kg

AKT(pS473) = experiment: Immunoblotting, AKT phosphorylation; type: cell-based, human; conditions: SW780 cells
Description: Cells were serum starved o.n. and 10 µM compound or 1 µM (BGJ398) were added 3 h before stimulation with 100 ng/ml bFGF for 15 min. Cells were lysed in RIPA buffer containing protease inhibitor cocktail and lysates resolved by SDS-PAGE. Membranes were probed with primary antibodies against phospho-FRS2, FRS2, phospho-ERK1/2, ERK1/2, pAKT, AKT and tubulin. Integrated density of immuno-reactive bands was quantified using Adobe Photoshop CS3. Integrated densities of phospho bands relative to non-phospho bands of same protein were calculated and plotted as fold-change relative to untreated control conditions. Compounds and BGJ398 were added in DMSO and corresponding DMSO concentrations were used in control samples.

| Compound | single-dose tolerability (result in words) [1] | pAKT (result in words) (AKT(pS473)) |
| --- | --- | --- |
| O=[N+]([O-])c1c(Cl)cc(O)c2c1C1C=CCC1C(c1ccc(Cl)cc1)N2 (centres unmarked) [Compound 7] | No mortality and body weight loss was observed | – |
| Cc1[nH]nc(-c2ccc(O)c(C)c2O)c1-c1nc2ccccc2s1 [Compound E12] | – | increase in pAKT |

— paper PMC10060354, “Discovery of a small molecule ligand of FRS2 that inhibits invasion and tumor growth” (Cellular Oncology, 2022)
